Measurements: patent US20260166159A1, “KRAS G12D DEGRADATION AGENT, AND PREPARATION METHOD AND USE THEREFOR” (LEADINGTAC PHARMACEUTICAL (SHAOXING) CO., LTD., priority 2022, published 2026)

Columns and labels:
KRAS-G12D [1] = target: T1, KRAS-G12D (Homo sapiens, UniProt P01116, G12D); assay: KRAS-G12D degradation assay (Western Blot), A-427 cells; type: cell-based; conditions: A427 cells, 24 h; for Dmax: A-427
T1 construct: endogenous in cells; host or cells: A-427 (ATCC), AGS, AsPc-1, Panc 04.03
T1 sequence (P01116 1-188 isoform P01116-2 G12D): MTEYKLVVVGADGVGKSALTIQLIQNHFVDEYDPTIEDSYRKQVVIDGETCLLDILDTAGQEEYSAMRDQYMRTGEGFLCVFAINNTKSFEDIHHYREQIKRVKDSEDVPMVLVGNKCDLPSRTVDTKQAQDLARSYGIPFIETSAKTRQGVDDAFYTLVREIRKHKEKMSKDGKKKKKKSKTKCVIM
Method in brief: (§1)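 Each KRAS G12D mutant line (A-427, AGS, AsPc-1, Panc 04.03) was seeded at 5×10^5 cells/well and treated 24 h at 37 °C with 0.03–3000 nM compound (final DMSO 0.25%). KRAS in lysates was measured by Western blot, normalized to β-actin and compared with controls, giving DC50 and Dmax from curve fits.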

KRAS-G12D [2] = target: T1, KRAS-G12D; assay: KRAS-G12D degradation assay (Western Blot), AGS cells; type: cell-based; conditions: 24 h
Description: (§2) The degradation effects of the compounds on KRAS-G12D were investigated on KRAS G12D mutant human lung cancer cell A-427 (ATCC), KRAS G12D mutant human gastric cancer cell AGS, KRAS G12D mutant human metastatic pancreatic cancer cell AsPc-1, and KRAS G12D mutant human pancreatic adenocarcinoma cell Panc 04.03. The specific procedures were as follows: 0.95 mL of cells were seeded into each well of a 24-well cell culture plate to achieve a cell density of 5×10^5 cells/well; and the cell plate was incubated in an incubator at 37° C. with 5% CO2 overnight. Then 50 μL of the compound solution after dilution was added to each of the wells with the corresponding cells, so that the final concentration of the compound was in a range of 0.03-3000 nM. The final concentration of DMSO was 0.25%. After the compounds were added, the cell plate was incubated in the incubator at 37° C. with 5% CO2 for 24 h. The culture medium in the 24-well cell culture plate was removed, and the plate was washed twice with 1×PBS (KeyGEN). 120 μL of RIPA (strong) lysis buffer (Beyotime) supplemented with 1 mM phenylmethylsulfonyl fluoride, a protease inhibitor mixture (Beyotime), and a protease phosphatase inhibitor mixture (Beyotime) was added to lyse adherent A-427 cells at the bottom of the cell culture plate. After the plate was left to stand on ice for 30 min, the protein lysate in each well was transferred to a 1.5 mL centrifuge tube and centrifuged at 15000 g for 20 min at 4° C. The cell lysate supernatants after centrifugation were cryopreserved in a refrigerator at −80° C. for later use.
(§3) After the samples of the cell lysate supernatants that had been prepared were thawed from the refrigerator at −80° C., the total protein concentrations of the cell lysates were determined using a BCA protein quantification kit (Tiangen). The total protein concentrations of the samples were then adjusted to 0.5 μg/μL with PBS and 5×SDS-PAGE protein loading buffer (Beyotime), and the samples were incubated in a water bath at 100° C. for 15 min. The samples were then incubated in an ice bath for 5 min and centrifuged at 14000 g for 1 min at 4° C., and the supernatants were mixed well as loading samples for the Western Blot assay. The samples were loaded into wells of a 10% precast gel (KeyGEN) with a loading volume of 10 μL (total protein: 5 μg), a sufficient Tris-MOPS-SDS running buffer (Adamas) was added, and then electrophoresis was performed at a constant voltage of 120 V for 55 min. After the electrophoresis, the proteins on the gel were transferred to PVDF membranes at a constant current of 250 mA for 55 min. After the membrane transfer, the PVDF membranes were incubated in 1× Quick Block blocking buffer (Beyotime) at room temperature for 30 min. After the blocking, the PVDF membranes were separately incubated at 4° C. overnight with the KRAS antibody (Abcam) diluted in a ratio of 1:1000 and the […] antibody (Abcam) diluted in a ratio of 1:2000 in 5% BSA as the diluent, and then washed with 1×TBST buffer (2.4 g of Tris, 8.8 g of NaCl, 1.5 mL of Tween 20, with pH adjusted to 7.4, with the volume brought to 1 L) 3 times for 10 min/time. The membranes were incubated with a secondary antibody (Abcam) diluted in 5% BSA at room temperature for 2 h, and then washed with 1×TBST buffer 3 times for 10 min/time. Finally, the membranes were incubated with Clarity Western ECL Substrate (BIO-RAD) for 5 min for luminescence and color development, and a ChemiScope 6200 Touch chemiluminescence imaging system (Clinx) was used for color development and protein mapping. Gray value analysis of the protein maps was performed using the chemiluminescence analysis software (Clinx). The gray correction value for each sample was calculated using the formula: gray correction value=(gray value of target protein/gray value of corresponding internal reference)×10^3. Then degradation rates were calculated by comparison with the gray correction value of the control group. […]

KRAS-G12D [3] = target: T1, KRAS-G12D; assay: KRAS-G12D degradation assay (Western Blot), AsPc-1 cells; type: cell-based; conditions: for DC50: 24 h; for Dmax: ASPC1, 24 h
Method in brief: as §1

KRAS-G12D [4] = target: T1, KRAS-G12D; assay: KRAS-G12D degradation assay (Western Blot), Panc 04.03 cells; type: cell-based; conditions: 24 h
Description: as §2, §3

[5] = test system: KRAS G12D mutant human lung cancer cell A427; assay: 3D cell proliferation inhibition assay, A427; type: cell-based; conditions: A-427, 168 h, A427, 7 days, CTG
Method in brief: (§4)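 Cells were seeded at 5×10^2 cells/well in low-adsorption plates with compound (10000–0.026 nM final, 0.2% DMSO) and grown for 7 days at 37 °C, 5% CO2. Viability was read by CTG luminescence after 60 min at room temperature. IC50 came from log concentration–inhibition curve fits, normalised to DMSO and medium-only controls.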

[6] = test system: KRAS G12D mutant human gastric cancer cell AGS; assay: 3D cell proliferation inhibition assay, AGS; type: cell-based; conditions: 168 h, 7 days, CTG
Method in brief: as §4

[7] = test system: KRAS G12D mutant human metastatic pancreatic cancer cell AsPc-1; assay: 3D cell proliferation inhibition assay, AsPc-1; type: cell-based; conditions: ASPC1, 168 h, AsPc-1, 7 days, CTG, numeric values
Method in brief: as §4

[8] = test system: KRAS G12D mutant human pancreatic cancer cell Panc 04.03; assay: 3D cell proliferation inhibition assay, Panc 04.03; type: cell-based; conditions: 168 h, Panc 04.03, 7 days, CTG, numeric values
Excerpt: The inhibitory effects of the compounds on 3D cell proliferation were investigated on KRAS G12D mutant human lung cancer cell A427, KRAS G12D mutant human gastric cancer cell AGS, KRAS G12D mutant human metastatic pancreatic cancer cell AsPc-1, KRAS G12D mutant human pancreatic cancer cell Panc 04.03, KRAS G12D mutant human pancreatic cancer cell HPAC, KRAS G12V mutant human lung squamous cell carcinoma cell SW900, and KRAS WT human gastric cancer cell MKN1. The specific procedures were as follows:
10 μL of each compound solution diluted in a gradient was added to corresponding wells of a 96-well low-adsorption microplate (PerkinElmer), so that the final concentrations of the test compounds in the reaction system were in a range of 10000-0.026 nM. The final concentration of DMSO was 0.2%. Then 90 µL of cells were correspondingly seeded into each well to achieve a cell density of 5×10^2 cells/well (the cell density of SW900 was 5×10^1 cells/well, and the cell density of MKN1 was 1×10^3 cells/well). In addition to test wells for the test compounds, both a DMSO control well and a medium control well were set, with the DMSO control well containing DMSO and cells and the medium well containing only a medium. After the sample loading, the 96-well low-adsorption microplate was incubated in an incubator at 37° C. with 5% carbon dioxide for 7 days. After 7 days, the microplate was taken out, and 100 μL of CTG reagent (Promega) was added to each well. The plate was incubated at room temperature for 60 min and read on a microplate reader EnVision by the chemiluminescence program. The inhibition rates of the compounds at each concentration were calculated using the formula for the percentage inhibition of cell proliferation: inhibition rate %=(mean value of DMSO control group−single concentration reading value of compound)/(mean value of DMSO control group−mean value of medium control group)×100. Then non-linear curve fittings for logarithmic concentration-inhibition rate were performed by GraphPad Prism 8, and the IC50 values of the compounds were obtained (Table 5).

[9] = test system: KRAS G12D mutant human pancreatic cancer cell HPAC; assay: 3D cell proliferation inhibition assay, HPAC; type: cell-based; conditions: 168 h, 7 days, CTG
Method in brief: as §4

[10] = target: T2, Human KRAS G12D 6His-tagged (Homo sapiens, UniProt P01116, G12D); assay: KRAS-G12D/GTP binding assay (HTRF); conditions: class symbols
T2 construct: purchased PerkinElmer
T2 sequence (P01116 1-188 isoform P01116-2 G12D): as above
Method in brief: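 HTRF kit format: 6His-tagged KRAS G12D incubated with compound (final 0.02-5000 nM, 0.5% DMSO), anti-6His Eu cryptate antibody and GTP Red reagent for 1 h at 25° C. 665/620 nm ratio versus control gave inhibition rates; IC50 by nonlinear fit.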

SMILES | DC50 (KRAS-G12D [1]; numeric values) [nM] | Dmax (KRAS-G12D [1]; numeric values) [%] | DC50 (KRAS-G12D [2]) [nM] | Dmax (KRAS-G12D [2]) [%] | DC50 (KRAS-G12D [3]) [nM] | Dmax (KRAS-G12D [3]) [%] | DC50 (KRAS-G12D [4]) [nM] | Dmax (KRAS-G12D [4]) [%] | IC50 ([5]; numeric values) [nM] | IC50 ([6]; numeric values) [nM] | IC50 [7] [nM] | IC50 [8] [nM] | IC50 [9] [nM] | IC50 [10] [nM] | DC50 (KRAS-G12D [1]; class symbols) [nM] | Dmax (KRAS-G12D [1]; class symbols) [%] | IC50 ([5]; class symbols) [nM] | IC50 ([6]; class symbols) [nM]
C#Cc1cccc2cc(O)cc(-c3ccc4c(N5CC6CCC(C5)N6)nc(OCC5(CN6CCN(CC7CCC8(CC7)CCN(C(=O)c7ccc(C)c(N9CCC(=O)NC9=O)c7)CC8)CC6)CC5)nc4c3F)c12 [Example 77, 1-(5-(9-((4-((1-(((4-(3,8-diazabicyclo[3.2.1]octan-3-yl)-7-(8-ethynyl-3-hydroxynaphthalen-1-yl)-8-fluoroquinazolin-2-yl)oxy)methyl)cyclopropyl)methyl)piperazin-1-yl)methyl)-3-azaspiro[5.5]undecane-3-carbonyl)-2-methylphenyl)dihydropyrimidine-2,4(1H,3H)-dione] | 1.76 | 94.5 | 1.47 | 100 | 13.2 | 98.2 | 26.2 | 98.5 | 17.8 | 8.9 | 6.75 | 31.5 | 9.54 | – | – | – | – | –
C#Cc1c(F)ccc2cc(O)cc(-c3ncc4c(N5CC6CCC(C5)N6)nc(OC[C@H](C)CN5CCN(CC6CCC7(CC6)CCN(C(=O)c6ccc(OC)c(N8CCC(=O)NC8=O)c6)CC7)CC5)nc4c3F)c12 [Example 90] | 0.86 | 95.6 | 10.6 | 98.9 | 1.87 | 100 | – | – | 28.3 | 0.65 | 1.19 | 8.82 | 2.44 | – | – | – | – | –
Cc1ccc(C(=O)N2CCC3(CCC(CN4CCN(CC5(COc6nc(N7CC8CCC(C7)N8)c7cnc(-c8cc(O)cc(Cl)c8C8CC8)c(F)c7n6)CC5)CC4)CC3)CC2)cc1N1CCC(=O)NC1=O [Example 81, 1-(5-(9-((4-((1-(((4-(3,8-diazabicyclo[3.2.1]octan-3-yl)-7-(3-chloro-2-cyclopropyl-5-hydroxyphenyl)-8-fluoropyrido[4,3-d]pyrimidin-2-yl)oxy)methyl)cyclopropyl)methyl)piperazin-1-yl)methyl)-3-azaspiro[5.5]undecane-3-carbonyl)-2-methylphenyl)dihydropyrimidine-2,4(1H,3H)-dione] | 16.8 | 76.5 | 2.99 | 80.3 | 17.8 | 98.2 | – | – | 67.1 | 5.52 | 13 | 27.8 | 4.37 | – | – | – | – | –
[2H]C([2H])([2H])c1ccc(C(=O)N2CCC3(CCC(CN4CCN(C[C@@H](C)COc5nc(N6CC7CCC(C6)N7)c6cnc(-c7cc(O)cc8ccc(F)c(C#C)c78)c(F)c6n5)CC4)CC3)CC2)cc1N1CCC(=O)NC1=O [Example 109, 1-(5-(9-((4-((R)-3-((4-(3,8-diazabicyclo[3.2.1]octan-3-yl)-7-(8-ethynyl-7-fluoro-3-hydroxynaphthalen-1-yl)-8-fluoropyrido[4,3-d]pyrimidin-2-yl)oxy)-2-methylpropyl)piperazin-1-yl)methyl)-3-azaspiro[5.5]undecane-3-carbonyl)-2-(methyl-d3)phenyl)dihydropyrimidine-2,4(1H,3H)-dione] | – | – | 4.8 | 94.5 | 0.64 | 98.8 | – | – | – | 3.98 | 1.42 | 6.73 | 1.62 | – | – | – | – | –
C#Cc1cccc2cc(O)cc(-c3ncc4c(N5CC6CCC(C5)N6)nc(OCC5(CN6CCN(CC7CCC8(CC7)CCN(C(=O)c7ccc(C)c(N9CCC(=O)NC9=O)c7)CC8)CC6)CC5)nc4c3F)c12 [Example 55, 1-(5-(9-((4-((1-(((4-(3,8-diazabicyclo[3.2.1]octan-3-yl)-7-(8-ethynyl-3-hydroxynaphthalen-1-yl)-8-fluoropyrido[4,3-d]pyrimidin-2-yl)oxy)methyl)cyclopropyl)methyl)piperazin-1-yl)methyl)-3-azaspiro[5.5]undecane-3-carbonyl)-2-methylphenyl)dihydropyrimidine-2,4(1H,3H)-dione] | – | – | 1.91 | 99.2 | 11.1 | 95.2 | 4.08 | 98.6 | – | – | – | – | 4.28 | ≤ 50 | ≤ 50 | 80 to 100 | ≤ 50 | ≤ 50
